Results on 15 compounds are retold here after PubChem BioAssay (NCI).

SMILES strings stand for the structures. Several values for one entry are separate records, joined by “and”; a condition that tells them apart may be missing. Equal entries are not always repeated.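 96-well plates; 48 h exposure; 5 concentrations. Endpoints by linear interpolation between flanking doses. Not reached: highest tested concentration assigned. Abbreviation: GI50, concentration required for 50% inhibition of growth. At the TGI there is no net growth.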

Some test systems named below: DU-145 prostate; UO-31 renal; HOP-62 NSCLC; TK-10 renal; SK-OV-3 ovarian; UACC-257 melanoma; NCI-H23 lung; SF-268 CNS; UACC-62 melanoma; HS 578T breast; COLO 205 colon; KM12 colon; SF-295 CNS; 786-0 renal; SK-MEL-28 melanoma; NCI-H522 lung.
Experiment in all cases: NCI-60 cell line screen, 48 h

As for `COc1ccc2c(c1)C(=O)[C@@](Nc1ccc(C=O)cc1)(OC)[C@@](OC)(c1ccc([N+](=O)[O-])cc1)O2`, the TGI in the test with DU-145 prostate, in the test with UO-31 renal, in the test on HOP-62 NSCLC, in the test with TK-10 renal, with SK-OV-3 ovarian and with UACC-257 melanoma was more than 10 µM throughout. Also, the TGI in the test on NCI-H23 lung, with SF-268 CNS, in the test with UACC-62 melanoma, in the test on HS 578T breast, with COLO 205 colon and in the test on KM12 colon was more than 10 µM each time. The TGI in the test on SF-295 CNS, in the test with 786-0 renal and in the test on SK-MEL-28 melanoma was more than 10 µM throughout.
In the case of `CNC(=O)OCC1=C(COC(=O)NC)C(C)N(c2ccccc2)C1` (stereo not drawn), the TGI in the test with DU-145 prostate, in the test with UO-31 renal, in the test with HOP-62 NSCLC, with TK-10 renal, in the test on SK-OV-3 ovarian and with UACC-257 melanoma was more than 100 µM in each case. In addition, the TGI in the test with NCI-H23 lung was more than 100 µM; with SF-268 CNS it was more than 100 µM; with UACC-62 melanoma, 68.8 µM; in the test with HS 578T breast, more than 100 µM; in the test with COLO 205 colon it was 48.5 µM; in the test with KM12 colon it was more than 100 µM. In addition, the TGI in the test with SF-295 CNS, with 786-0 renal and with SK-MEL-28 melanoma was more than 100 µM each time.
For the compound `COc1ccc(/C=C2/SC(c3c(O)ccc4ccccc34)N(NC(=O)CCCCCCCCC(=O)NN3C(=O)/C(=C\c4ccc(OC)c(OC)c4)SC3c3c(O)ccc4ccccc34)C2=O)cc1OC` (stereo not drawn), the TGI is more than 100 µM with DU-145 prostate; more than 39.8 µM in the test with HOP-62 NSCLC; more than 100 µM in the test with NCI-H522 lung; more than 100 µM in the test with TK-10 renal; more than 52.9 µM in the test on SK-OV-3 ovarian; more than 28.5 µM in the test with UACC-257 melanoma. Further, the TGI was more than 75 µM in the test with NCI-H23 lung; more than 100 µM with SF-268 CNS; 11.2 µM in the test on UACC-62 melanoma; more than 29.9 µM in the test with COLO 205 colon; more than 100 µM with KM12 colon; more than 100 µM with SF-295 CNS. Further, the figures for the TGI in the test on 786-0 renal and with SK-MEL-28 melanoma were more than 20.5 µM and more than 100 µM, respectively.
As to `O=c1oc2ccccc2n1CCCn1c(=O)oc2ccccc21`, the TGI in the test on DU-145 prostate, with HOP-62 NSCLC, in the test with TK-10 renal, in the test with SK-OV-3 ovarian, in the test on UACC-257 melanoma and in the test on NCI-H23 lung was more than 100 µM in each case. Besides, the TGI in the test on SF-268 CNS, in the test on UACC-62 melanoma, in the test with HS 578T breast, in the test with COLO 205 colon, in the test with KM12 colon and with SF-295 CNS was more than 100 µM each time. Further, the TGI with 786-0 renal and in the test on SK-MEL-28 melanoma was more than 100 µM each time.
Regarding `CO/N=C(\C(=O)[N-][n+]1cnn(CC(=O)O)c1)c1csc(N)n1`, the TGI with DU-145 prostate, in the test on HOP-62 NSCLC, in the test with TK-10 renal, in the test on SK-OV-3 ovarian, in the test with UACC-257 melanoma and in the test with NCI-H23 lung was more than 10 µM in each case. Besides, the TGI in the test with SF-268 CNS, in the test with UACC-62 melanoma, in the test with COLO 205 colon, in the test on KM12 colon, in the test on 786-0 renal and with SK-MEL-28 melanoma was more than 10 µM throughout.
Turning to `O=C(N[C@@H](Cc1ccccc1)B(O)O)[C@H](Cc1cccc2ccccc12)NC(=O)N1CCOCC1`, the TGI in the test on DU-145 prostate was 0.403 µM and 0.527 µM; in the test on UO-31 renal, 0.482 µM; in the test on HOP-62 NSCLC it was 0.0316 µM and 0.0488 µM; with TK-10 renal, 0.154 µM and 0.413 µM; in the test on UACC-257 melanoma, 0.0065 µM and 0.0397 µM; with NCI-H23 lung it was 0.00899 µM and 0.0101 µM. In addition, the TGI is 0.00654 µM and 0.058 µM with SF-268 CNS; 0.0119 µM and 0.0391 µM in the test on UACC-62 melanoma; 0.213 µM in the test on HS 578T breast; 0.197 µM and 0.233 µM in the test with COLO 205 colon; 0.0041 µM and 0.0149 µM in the test on KM12 colon; 0.0304 µM and 0.0239 µM in the test with SF-295 CNS. The TGI with 786-0 renal is 0.271 µM and 0.12 µM; in the test with SK-MEL-28 melanoma it was 0.00367 µM. In addition, in the test on UO-31 renal, the GI50 is 0.123 µM.
Turning to `C(#C[C@@]12CCC[C@@H]1N(Cc1ccccc1)CO2)c1ccc2c(c1)OCO2`, the TGI with DU-145 prostate, in the test with UO-31 renal, with HOP-62 NSCLC, in the test on SK-OV-3 ovarian, in the test with UACC-257 melanoma and in the test on NCI-H23 lung was more than 100 µM in each case. Moreover, the TGI in the test on SF-268 CNS, in the test with UACC-62 melanoma, in the test on HS 578T breast, in the test with COLO 205 colon, in the test with KM12 colon and with SF-295 CNS was more than 100 µM each time. In addition, the TGI with 786-0 renal and in the test on SK-MEL-28 melanoma was more than 100 µM each time.
`COc1ccc2c(c1)C=C(C(C)(C)C)NS2(=O)=O`: the TGI in the test on UO-31 renal, in the test with HOP-62 NSCLC, with NCI-H522 lung, in the test with TK-10 renal, with SK-OV-3 ovarian and in the test on UACC-257 melanoma was more than 100 µM throughout. Moreover, the TGI in the test with NCI-H23 lung, in the test on SF-268 CNS, in the test on UACC-62 melanoma, in the test on COLO 205 colon, in the test with KM12 colon and with SF-295 CNS was more than 100 µM throughout. For the same compound, the TGI with 786-0 renal and in the test with SK-MEL-28 melanoma was more than 100 µM each time.
With `CC1=CC(=O)/C(=C/N2C(=O)CNC2=S)C(=O)O1`, the TGI in the test with DU-145 prostate, with UO-31 renal, in the test on HOP-62 NSCLC, in the test with TK-10 renal, in the test with SK-OV-3 ovarian and in the test with UACC-257 melanoma was more than 100 µM each time. Moreover, the TGI in the test on NCI-H23 lung, in the test with COLO 205 colon, with KM12 colon, in the test with SF-295 CNS, in the test on 786-0 renal and in the test on SK-MEL-28 melanoma was more than 100 µM each time.
As to `CC(c1ccccc1)C(O)S(=O)(=O)O` (stereo not drawn), the TGI with UO-31 renal, in the test on NCI-H522 lung, with TK-10 renal, in the test on SK-OV-3 ovarian, in the test on UACC-257 melanoma and in the test with NCI-H23 lung was more than 100 µM in each case. For the same compound, the TGI in the test on SF-268 CNS, with UACC-62 melanoma, in the test on COLO 205 colon, in the test with KM12 colon, with SF-295 CNS and with 786-0 renal was more than 100 µM each time. This compound registered a TGI in the test with SK-MEL-28 melanoma of more than 100 µM.
Take `CC(C)(C)OC(=O)N1CCC(NC(=O)NC2CCN(C(=O)OC(C)(C)C)CC2)CC1`: the TGI in the test on UO-31 renal, in the test with HOP-62 NSCLC, in the test with NCI-H522 lung, in the test with TK-10 renal, in the test with UACC-257 melanoma and in the test on NCI-H23 lung was more than 100 µM throughout. In addition, the TGI in the test on SF-268 CNS, with UACC-62 melanoma, in the test with HS 578T breast, in the test with KM12 colon, with SF-295 CNS and in the test with 786-0 renal was more than 100 µM in each case. Moreover, the TGI with SK-MEL-28 melanoma was more than 100 µM.
Take `C/C(=N\Nc1nc2ccccc2o1)c1cc2ccccc2cn1`: the TGI in the test on DU-145 prostate was found to be 39.7 µM; with UO-31 renal it was 0.271 µM; in the test on HOP-62 NSCLC, 15.6 µM; in the test on SK-OV-3 ovarian it was 8.15 µM; with NCI-H23 lung, 8.3 µM; in the test on SF-268 CNS, 2.82 µM. The TGI in the test with UACC-62 melanoma was 2.53 µM; in the test with HS 578T breast it was 11.2 µM; with COLO 205 colon, more than 32.7 µM; in the test on KM12 colon it was 7.85 µM; in the test with SF-295 CNS it was 4.56 µM; with 786-0 renal, 6.61 µM. The compound further showed a TGI with SK-MEL-28 melanoma of 48.6 µM.
With `N#Cc1c2ccc([N+](=O)[O-])cc2c(=O)n2c1sc1ccccc12`, the TGI in the test with DU-145 prostate is more than 100 µM; in the test with UO-31 renal it was 72.7 µM; in the test with TK-10 renal it was 55.8 µM; in the test on UACC-257 melanoma it was more than 100 µM; with NCI-H23 lung, 43 µM; in the test on SF-268 CNS, more than 100 µM. Further, the TGI is more than 100 µM with UACC-62 melanoma; more than 100 µM with HS 578T breast; 37.7 µM in the test with COLO 205 colon; more than 100 µM in the test with KM12 colon; more than 100 µM in the test with 786-0 renal; more than 100 µM in the test on SK-MEL-28 melanoma.
For `O=C(NNC(=O)c1c(Cl)c(Cl)c(Cl)c(Cl)c1-c1nc2ccccc2[nH]1)c1ccc(Cl)cc1`, the TGI in the test with DU-145 prostate, in the test with UO-31 renal, with HOP-62 NSCLC, in the test on NCI-H522 lung, in the test on SK-OV-3 ovarian and with NCI-H23 lung was more than 100 µM throughout. Moreover, the TGI in the test on SF-268 CNS, with UACC-62 melanoma, in the test with COLO 205 colon, with KM12 colon, in the test on SF-295 CNS and in the test with 786-0 renal was more than 100 µM each time. Also, the TGI in the test on SK-MEL-28 melanoma is more than 100 µM.
Regarding `Cn1c(O)c(C=Nc2ccc(Cl)cc2Cl)c(=O)n(C)c1=O`, the TGI in the test on UO-31 renal, in the test on HOP-62 NSCLC, with NCI-H522 lung, in the test with TK-10 renal, in the test on SK-OV-3 ovarian and in the test with UACC-257 melanoma was more than 100 µM in each case. Further, the TGI with NCI-H23 lung, with SF-268 CNS, in the test on UACC-62 melanoma, in the test with HS 578T breast, in the test on COLO 205 colon and with KM12 colon was more than 100 µM throughout. The TGI with SF-295 CNS and in the test with 786-0 renal was more than 100 µM each time.
